Data from patent publication US7666644B2, “Glyphosate-N-acetyltransferase (GAT) genes” (Verdia, Inc., priority 2004, dated 2010).
Where a chain is given by its changes, count along the chain named.

What was measured:
[1] = tested on: soybeans expressing GAT and HRA transgenes; assay: T1 post-emergence sulfonamide spray of soybeans expressing GAT and HRA transgenes; type: in vivo, soybean; conditions: GAT (SEQ ID NO: 824)/SAMS promoter-HRA events
Method: T1 seed generated from experiments as described in Example 17 were germinated in RediEarth^R 360 medium in the greenhouse. Plants were sprayed at the V2-V3 stage (14 days after potting) with thifensulfuron, chlorimuron, rimsulfuron or tribenuron (70, 70, 35, 35 gm a.i./hectare, respectively). Plants were evaluated 10 days post application based on plant discoloration scores described in Example 17.
Events having a plant discoloration rating 7 or 8 after thifensulfuron spray were sprayed with either a 2× or 4× application of glyphosate after 10 days as per methods described in Example 17. Events were evaluated based on discoloration scores described in Example 17. All thifensulfuron tolerant events survived the glyphosate spray with score of 7 or 8 (results not shown).

[2] = tested on: soybeans expressing GAT and HRA transgenes; assay: T1 pre-emergence sulfonamide spray of soybeans expressing GAT and HRA transgenes; type: in vivo, soybean; design: key: 9=no leaf/stem discoloration; 7=minor leaf/stem discoloration; 5=worse leaf/stem discoloration; 3=severely discolored plant or dying plant; 1=dead plant; conditions: 70 gms a.i./hectare, 10 days post spray, all HRA and GAT events
Method: T1 seed generated from experiments as described in Example 17, were planted in pots of Tama Silt loam in the greenhouse. Pots were immediately sprayed with a pre-emergence application of chlorimuron, rimsulfuron or tribenuron at a rate of 70 gms a.i./hectare. Germinating plants were evaluated 10 days post spray application based on plant discoloration scores described in Example 17. All HRA and GAT events survived all pre-emergence spray applications with a rating of 9 (uninjured).

[3] = molecular target: T1, Bacillus licheniformis strain B6 glyphosate-N-acetyltransferase (GAT), native, SEQ ID NO:7 (Bacillus paralicheniformis, UniProt A0AAW6KBE1); assay: Apparent KM and kcat of purified GAT (Example 2); type: biochemical; conditions: read-out: KM for Acetyl CoA; apparent; 5 mM glyphosate, 5 mM morpholine pH 7.7, 50% methanol; MS detection
T1 construct: untagged
Method: Lysis of the cells was effected by the addition of 1 ml of the following buffer to 0.2 g of cells: 25 mM HEPES, pH 7.3, 100 mM KCl and 10% methanol (HKM) plus 0.1 mM EDTA, 1 mM DTT, 1 mg/ml chicken egg lysozyme, and a protease inhibitor cocktail obtained from Sigma and used according to the manufacturer's recommendations. After 20 minutes incubation at room temperature (e.g., 22-25° C.), lysis was completed with brief sonication. The lysate was centrifuged and the supernatant was desalted by passage through Sephadex G25 equilibrated with HKM. Partial purification was obtained by affinity chromatography on CoA Agarose (Sigma). The column was equilibrated with HKM and the clarified extract was allowed to pass through under hydrostatic pressure.
Purification to homogeneity was obtained by gel filtration of the partially purified protein through Superdex 75 (Pharmacia).
Initial reaction rates were determined using mass spectrometric detection of N-acetyl glyphosate. Five μl were repeatedly injected into the instrument and reaction rates were obtained by plotting reaction time vs area of the integrated peak (FIG. 6).

[4] = tested on: native or low activity GAT enzymes (glyphosate-N-acetyltransferase); assay: Kinetics typical of native or low activity GAT enzymes (Example 4); type: biochemical; conditions: read-out: KM for acetyl CoA
tobacco plants = assay: Herbicide spray tests of GAT expressing tobacco plants; type: in vivo, Nicotiana tabacum
Method: Tobacco shoots generated as described in EXAMPLE 9 were excised from the explants and transferred to basal root induction (BRI) medium composed of half-strength Murashige and Skoog (MS) medium, pH 5.7, with 1.5% sucrose, 0.3% Gelrite, 0-200 uM glyphosate and 400 ug/ml Timentin. Rooted plants and axillary shoots were clonally propagated by cutting the stem and transferring it to fresh BRI medium until the desired number of clones was obtained. Rooted plants were carefully removed from the solid medium. Prior to placing the plants into small pots of soil, the roots were washed to remove any remaining Gelrite. A protective plastic cover was kept over the plants for at least one week until the plants were well established.
To determine if GAT expressing tobacco plants could tolerate simulated field rate sprays of glyphosate, clonal lines of several events per GAT variant were tested. A typical test was set up as follows: One clone from each event was sprayed with 1 ml of solution containing the isopropylamine salt of glyphosate (Sigma P5671) and 0.125% Triton X-100, pH 6.8 such that the amount of active ingredient sprayed was equivalent to that present in commercial glyphosate products. For example, to achieve 32 oz/acre (1×) of herbicide containing 40% active ingredient (“ai”), 2.4 ul of 40% ai formulation was diluted into 1 ml water and sprayed on a plant in a 4-inch square pot (16 in^2). A mock application (0×) with surfactant only was also included. In some cases a second spray was applied 1-4 weeks later. Plants were kept in controlled growth rooms at 25° C. and 70% humidity with 16 hr light.
Seed-grown wild type plants were also sprayed. […] All 0× plants were healthy, including the non-GAT control plants. Three weeks later all of the surviving plants were sprayed with an 8× dose.

[5] = Transfer of the propionyl group from propionyl CoA to glyphosate, DTNB detection; type: biochemical; conditions: 1 mM propionyl CoA, 5 mM glyphosate or no glyphosate, 30 minutes
Method: The ability of GAT variants (B6 (SEQ ID NO:7), 0—6D10 (SEQ ID NO:448), 17-15H3 (SEQ ID NO:601), and 20-8H12c (SEQ ID NO:817)) to transfer the propionyl group from propionyl CoA to glyphosate was tested in reaction mixtures containing 5 mM glyphosate or no glyphosate. Propionyl CoA was present at 1 mM. After 30 minutes the reactions were terminated and the presence of free […] was determined by the addition of DTNB.

maize plants = assay: Effect of temperature variation on glyphosate tolerance of T1 maize expressing GAT transgenes; type: in vivo; conditions: cool/cold, warm and hot conditions, 0×, 4×, 6×, 8× glyphosate at V2, scored 5 and 14 days
Method: Maize plants expressing GAT variant transgenes 10—4F2 (SEQ ID NO:203), 17-15H3 (SEQ ID NO:549), and 18-28D9b (SEQ ID NO:814) were produced using the methods described in Example 13. The effect of temperature on glyphosate tolerance was evaluated in T1 plants. The T1 plants were grown in cool/cold (day 14° C., night 8° C.), warm (day 28° C., night 20° C.), and hot (day 37° C., night 20° C.) conditions. T1 plants were sprayed at V2 with four different glyphosate spray treatments (0×, 4×, 6×, and 8×). Plants were scored at 5 and 14 days after treatment for leaf discoloration and plant height comparisons as described in Example 13.

[6] = Kinetics of GAT variants modified next to the initiating methionine; type: biochemical
From the text: A second way to increase plant expression of microbial genes is to increase the G+C content near the initiating methionine residue. Naturally-occurring coding sequences in plants tend to contain two or three G and/or C residues immediately downstream of the ATG initiation codon (Joshi et al. (1997) Plant Mol. Biol. 35:993-1001). Introducing into the gat coding sequence one or two CG-rich codons immediately downstream of the ATG intitiation codon may create a more plant-like coding sequence and thus may enhance its expression in plants.

[7] = 70 gm a.i./ha post-emergence at V2-V3, 10 days after treatment
[8] = 35 gm a.i./ha post-emergence at V2-V3, 10 days after treatment

COc1nc(C)nc(NC(=O)NS(=O)(=O)c2ccsc2C(=O)O)n1 [Thifensulfuron]
Average Resistance scores [1, 7]: 7.81

CCS(=O)(=O)c1cccnc1S(=O)(=O)NC(=O)Nc1nc(OC)cc(OC)n1 [Rimsulfuron]
plant discoloration rating [2]: 9
Average Resistance scores [1, 8]: 2.21

CC(=O)SCCNC(=O)CCNC(=O)[C@H](O)C(C)(C)COP(=O)(O)OP(=O)(O)OC[C@H]1O[C@@H](n2cnc3c(N)ncnc32)[C@H](O)[C@@H]1OP(=O)(O)O [acetyl CoA]
Km [3]: 2 µM
Km [4]: < 25 µM

COc1cc(Cl)nc(NC(=O)NS(=O)(=O)c2ccccc2C(=O)O)n1 [Chlorimuron]
plant discoloration rating [2]: 9
Average Resistance scores [1, 7]: 7.75

COc1nc(C)nc(N(C)C(=O)NS(=O)(=O)c2ccccc2C(=O)O)n1 [Tribenuron]
plant discoloration rating [2]: 9
Average Resistance scores [1, 8]: 3.83

B1: 0—6D10: evolved GAT; gene SEQ ID NO:196, enzyme SEQ ID NO:448 (protein)
chain: MLEVKPINAEDTYELRHKILRPNQPLEVCMYETDLLRGAFHLGGFYRGKLISIASFHQAEHSDLQGQKQYQLRGMATLEGYRDQKAGSSLIRHAEQILRKRGADMLWCNARTSASGYYKKLGFSEQGEVFETPPVGPHILMYKRLT
modifications: 0_6D10
outcome two weeks after glyphosate spray (tobacco plants; 0.5, 2 or 4× glyphosate (1× = 32 oz/acre of 40% ai), clonally propagated events, average of 5 leaves): survived the spraying procedure without signs of glyphosate damage
outcome after second spray with an 8× dose (tobacco plants; 8× glyphosate three weeks later): survived
glyphosate-dependent hydrolysis of propionyl CoA [5]: showed glyphosate-dependent hydrolysis of propionyl CoA

B2: 10—4F2: evolved GAT; enzyme SEQ ID NO:454, transgene printed as SEQ ID NO:203 (protein)
chain: B1 chain with K18R, L26I, V28A, Y31F, T33S, D63E, D83E, Q96E, V129I
modifications: 10_4F2
effect of growth temperature on glyphosate tolerance (maize plants): not adversely effected

B3: 22-15B4 M1MAA: 22-15B4 with two alanines inserted between Met1 and Ile2, SEQ ID NO:948 (protein)
chain: MAAIEVKPINAEDTYDLRHRVLRPNQPIEACMFDSDLMRSAFHLGGFYGGKLISVASFHQAEHTELQGQKQYQLRGVATLEGYREQKAGSSLVKHAEEILRKRGVDLLWCNARTSASGYYKKLGFSEQGEVFDTPPVGPHILMYKRIT
modifications: 22-15B4 M1MAA
kinetics compared to the unmodified enzyme [6]: reduced kcat

B4: 22-15B4 M1MA: 22-15B4 with one alanine inserted between Met1 and Ile2, SEQ ID NO:946 (protein)
chain: MAIEVKPINAEDTYDLRHRVLRPNQPIEACMFDSDLMRSAFHLGGFYGGKLISVASFHQAEHTELQGQKQYQLRGVATLEGYREQKAGSSLVKHAEEILRKRGVDLLWCNARTSASGYYKKLGFSEQGEVFDTPPVGPHILMYKRIT
modifications: 22-15B4 M1MA
kinetics compared to the unmodified enzyme [6]: essentially unaltered kinetics

B5: 18-28D9b: GAT variant transgene, SEQ ID NO:814 (nucleic acid)
DNA: ATGATAGAGGTGAAACCGATTAACGCAGAGGATACCTATGAACTAAGGCATAGAATACTCAGACCAAACCAGCCGATAGAAGCGTGTATGTTTGAAAGCGATTTACTTCGTGGTGCATTTCACTTAGGCGGCTTTTACAGGGGCAAACTGATTTCCATAGCTTCATTCCACCAGGCCGAGCACTCGGAACTCCAAGGCCAGAAACAGTACCAGCTCCGAGGTATGGCTACCTTGGAAGGTTATCGTGAGCAGAAAGCGGGATCAACTCTAGTTAAACACGCTGAAGAAATCCTTCGTAAGAGGGGGGCGGACATGCTTTGGTGTAATGCGCGGACATCCGCCTCAGGCTACTACAAAAAGTTAGGCTTCAGCGAGCAGGGAGAGATATTTGACACGCCGCCAGTAGGACCTCACATCCTGATGTATAAAAGGATCACATAA
modifications: Synthetic nucleic acid sequence; CDS (1)...(441); 18-28D9b
effect of growth temperature on glyphosate tolerance (maize plants): not adversely effected
